Test results published in patent publication US11434270B2, “Protein for neutralizing programmed necrocytosis promotion antibody, and application of protein” (SHANGHAI JW INFLINHIX CO., LTD., priority 2015, dated 2022).

Assays:
L929 cells = experiment: Apoptosis and necrosis test (live/dead staining, active caspase-3, flow cytometry) in L929 cells; type: cell-based, mouse
Description: (§1) In the presence of TNF or TNF peptide with or without 20 μM z-VAD-FMK (R & D Systems, Minneapolis, Minn.) or 20 μM Necrotatin-1 (PeproTech, Rocky Hill, N.J.) (Immunotools, Friesoythe, Germany), cells were incubated overnight (or the time shown in the incubation diagram). In some experiments, TNF was co-cultured with cells and the monoclonal antibody with indicated concentration or synovial fluid. Cells were stained using live/dead cell staining kit (Invitrogen, Paisley, UK) according to the manufacturer's manual and fixed using a cytofix/cytoperm fixation/permeabilization solution kit (BD Pharmingen, Oxford, UK). Intracellular staining was then performed using FITC-conjugated anti-caspase-3 antibody (Cell Signaling Technology, Danvers, Mass., USA). Cells were harvested by CyAn flow cytometer (Beckman Coulter, Fullerton, Calif.), and data were analysed by Flowjo (Tree Star Inc. Ashland, Oreg.).

[1] = test system: cell necrosis-promoting antibody (244-12); experiment: ELISA binding of polypeptide to cell necrosis-promoting antibody; conditions: for binding to cell necrosis-promoting antibodies: summary table
Description: (§2) However, the reaction with synovial fluid of a control patient without autoantibodies (SF010) was negative. ELISA plates were coated with 2 μg/ml of P11-17, blocked with BSA, incubated with 244-12, SF024, SF045, SF010 at room temperature for 1 hour, and then identified with horseradish peroxidase […] anti-mouse or human IgG secondary antibody.

cells [2] = experiment: Stimulation of cell proliferation; type: cell-based; conditions: summary table
[3] = test system: cell necrosis caused by cell necrosis-promoting antibody; experiment: Inhibition of cell necrosis caused by cell necrosis-promoting antibody; type: cell-based
Description: as §1

cells [4] = experiment: Apoptosis and necrosis test, cell line not stated; type: cell-based; conditions: summary table
Description: as §1

[5] = test system: monoclonal antibody 244-12; experiment: Competitive inhibition ELISA of TNF binding to monoclonal antibody 244-12; conditions: plates coated with TNF, peptide added, then 244-12
Description: (§3) ELISA plates were coated with 2 μg/ml of TNF at 4° C. overnight, or at 37° C. for 2 hours, and then incubated with a monoclonal antibodies at 37° C. for 1 hour. A second antibody conjugated to HRP was used to detect the reaction. For the inhibition assay, TNFR1 or synovial fluid was added together with the monoclonal antibody.
METHODS: plates were coated with TNF, and the indicated peptides were added to each well, and then the monoclonal antibody 244-12 was added.

TNF receptors = experiment: L929 cell immunofluorescence microscopy: TNF/antibody binding to cell surface TNF receptors; type: cell-based, mouse
Description: At room temperature, 20 ng/ml of TNF and 2 μg/ml of mAb M26 or 244-12 were incubated for 1 hour. The mixture of TNF/M26 or TNF/244-12 were incubated on ice with L929 cells grown on coverslip for an another 15 minutes. The cells were fixed with 4% paraformaldehyde (PBS formulation) were for 10 minutes, blocked with phosphate buffer containing 0.5% BSA and 0.1% cold water fish gelatin for 15 minutes, and then incubated with rabbit anti-TNFR1 antibody (Abeam) for 1 hour. The cells were washed with PBS and then incubated with the relevant secondary antibody coupled to Alexa Fluor 488 or Alexa Fluor 568 (Invitrogen). Then the sample washed with PBS was mounted with Gelvatol/DABCO (Sigma-Aldrich). DNA was counterstained with DAPI (Sigma-Aldrich). All samples were analyzed by fluorescence microscopy at 60× using Nikon Eclipse 80i. Images were taken with NIS-Elements AR3.0 software using Hamamatsu camera.

TNF = target: T1, TNF (Homo sapiens, UniProt P01375); experiment: ELISA screening of monoclonal antibodies for binding to TNF; conditions: screening of 33 monoclonal antibodies
T1 construct: purchased Immunotools
T1 sequence (P01375 whole entry): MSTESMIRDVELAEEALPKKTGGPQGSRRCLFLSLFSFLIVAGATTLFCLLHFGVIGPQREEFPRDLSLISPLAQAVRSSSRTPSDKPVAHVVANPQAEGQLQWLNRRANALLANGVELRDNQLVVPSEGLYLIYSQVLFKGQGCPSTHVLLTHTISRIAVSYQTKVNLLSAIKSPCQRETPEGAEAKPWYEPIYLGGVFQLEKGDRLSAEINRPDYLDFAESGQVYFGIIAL
Description: as §3

[6] = test system: C2812 cells (chondrocytes); experiment: Apoptosis test (active caspase-3) in C2812 chondrocytes; type: cell-based, human; conditions: antibody added to TNF
Description: as §1

[7] = test system: cell necrosis-promoting antibodies present in joint fluid of arthritis patients; experiment: ELISA binding of polypeptide to autoantibodies in synovial fluid of arthritis patients; set-up: species or system human; conditions: plate coated with 2 μg/ml of P11-17
Description: as §2

| Molecule | binding to cell necrosis-promoting antibodies [1] | Stimulation of cell proliferation (cells [2]) | Inhibition of cell necrosis ([3]; summary table) | Apoptosis (cells [4]) | Necrosis (cells [4]) | competitive inhibition of binding of TNF to mAb 244-12 [5] | other results |
| --- | --- | --- | --- | --- | --- | --- | --- |
| CN1C(=O)C(Cc2c[nH]c3ccccc23)NC1=S (stereo not drawn) [Nec-1, Necrotatin-1, reference compound] | – | – | – | – | – | – | necrosis induced by antibody 244-12 + TNF (L929 cells; Nec-1 added to 244-12+TNF, necrosis converted into apoptosis): can be inhibited |
| DNQLVVPSEG [P13-1] | Yes | no | Yes | no | no | significantly inhibited | – |
| NQLVVPSEGL [P13-2] | Yes | no | Yes | no | no | significantly inhibited | – |
| QLVVPSEGLY [P13-3] | Yes | no | Yes | no | no | significantly inhibited | – |
| RDNQLVVPSE [P12-10] | Yes | no | Yes | no | no | significantly inhibited | – |
| Tumor necrosis factor α [TNFα] | Yes | Yes | no | Yes | Yes | – | cell fate of L929 cells (L929 cells; TNF alone): apoptosis |
| 244-12: cell necrosis-promoting monoclonal antibody binding TNF epitope QLVVPSE; light chain SEQ ID NO: 9, heavy chain SEQ ID NO: 10 (antibody, listed as Homo sapiens) heavy: QIQLVQSGPELKKPGETVKISCKASGYTFTNYGMNWVKQAPGKGLKWMGWINTYTGEPTYADDFKGRFAFSLETSANTAYLQINNLRNEGMATYFCARHYRYAWFPYWGQGTLVTVSAAKTTPPSVYPLAPGCGDTTGSSVTLGCLVKGYFPESVTVTWNSGSLSSSVHTFPALLQSGLYTMSSSVTVPSSTWPSQTVTCSVAHPASSTTVDKKLEPSGPISTINPCPPCKECHKCPAPNLEGGPSVFIFPPNIKDVLMISLTPKVTCVVVDVSEDDPDVQISWFVNNVEVHTAQTQTHREDYNSTIRVVSTLPIQHQDWMSGKEFKCKVNNKDLPSPIERTISKIKGLVRAPQVYILPPPAEQLSRKDVSLTCLVVGFNPGDISVEWASNGHTEENYKDTAPVLDSDGSYFIYSKLNMKTSKWEKTDSFSCNVRHEGLKNYYLKKTISRSPGK light: DIQMTQSPASLSASVGETVTITCRASGNIHIYLAWYQQKQGKSPQLLVYNAKTLADGVPSRFSGSGSGTQYSLKINSLQPEDFGSYYCQHFWSIPWTFGGGTKLEIKRADAAPTVSIFPPSSEQLTSGGASVVCFLNNFYPKDINVKWKIDGSERQNGVLNSWTDQDSKDSTYSMSSTLTLTKDEYERHNSYTCEATHKTSTSPIVKSFNRNEC | – | – | – | – | – | – | direct binding of antibody to cell surface (TNF receptors; absence of TNF): cannot directly bind to cell surface; effect of antibody binding to TNF on binding of TNF to TNF receptors (TNF receptors; confocal micrograph, L929 cells, TNF present): did not affect; TNF-induced apoptosis (expression of active caspase-3) (L929 cells; L929 cells, antibody added to TNF): blocked; cell fate of L929 cells (L929 cells; antibody added together with TNF): necrosis; binding to TNF by ELISA test (TNF): strongest; TNF-induced apoptosis (expression of active caspase-3) [6]: blocked |
| QLQWLNRRANALLANGVELRDNQLVVPSEGLYLIYSQVLFKGQGCPSTHVLLTHTISRIAVSYQTKVNLLSAIKSPCQRE (protein) QLQWLNRRANALLANGVELRDNQLVVPSEGLYLIYSQVLFKGQGCPSTHVLLTHTISRIAVSYQTKVNLLSAIKSPCQRE | Yes | no | Yes | no | no | – | binding to purified cell necrosis-promoting antibody (244-12) ([1]; ELISA plate coated with 2 μg/ml of P11-17): can bind; Inhibition of cell necrosis ([3]; necrosis caused by purified 244-12 or by antibody in patients' synovial fluid (SF002, SF045)): can effectively inhibit cell necrosis; reaction with synovial fluid of a control patient without autoantibodies ([7]; sample SF010): negative; binding to cell necrosis-promoting antibodies in joint fluid of arthritis patients ([7]; samples SF024, SF045): bind |
| QLQWLNRRANALLANGVELRDNQLVVPSEGLYLIYSQVLFKGQGCPSTHVLLTHTISRIAVFHQTKVNLLSAIKSPCQRE (protein) QLQWLNRRANALLANGVELRDNQLVVPSEGLYLIYSQVLFKGQGCPSTHVLLTHTISRIAVFHQTKVNLLSAIKSPCQRE | Yes | no | Yes | no | no | – | – |
